Reference: PMC7177633, “Effective Cellular Transport of Ortho-Halogenated Sulfonamide Derivatives of Metformin Is Related to Improved Antiproliferative Activity and Apoptosis Induction in MCF-7 Cells” (International Journal of Molecular Sciences, 2020)

How the values were obtained:
MCF-7 cells [1] = assay: Intracellular GSH and GSSG, MCF-7; type: cell-based, human
Procedure: The quantitative determination of glutathione and glutathione disulfide was performed using the enzymatic recycling method according to the protocol of Rahman. The cells were seeded at a density of 2 × 10^5 per well in a 6-well plate and cultured for 48 h. Then, the cells were treated with tested compounds 1, 4 and 7 at their respective ¼ and ½ IC50 values for MCF-7 and MDA-MB-231 cells. Additionally, controls with pure medium, AAPH (2,2′-Azobis(2-methylpropionamidine) dihydro-chloride, Sigma Aldrich, St. Louis, MO, USA) and ascorbic acid (Polish Chemical Reagents, Poland) were performed. The cells were incubated with compounds for another 24 h, then washed twice with 2 mL of cold, Ca^2+-/Mg^2+-free PBS (Biomed Lublin, Lublin, Poland). The cells were harvested using 1-mL accutase (Sigma Aldrich, St. Louis, MO, USA), and the wells were washed with 1 mL of cold growth medium. The cells were transferred to prechilled 2.0-mL Eppendorf tubes and centrifuged at 1000× g for 5 min at 4 °C. The supernatant was discarded, the pellets were resuspended in 1 mL of cold PBS, the number of cells was determined in each sample and the cellular suspension was centrifuged again. PBS was discarded, and the pellets were stored covered with 30-µL PBS at –70 °C. The following day, the cells were suspended in 0.5 mL of ice-cold extraction buffer (0.1% Triton-X (Polish Chemical Reagents, Gliwice, Poland) and 0.6% sulfosalicylic acid (Sigma Aldrich) in a potassium phosphate buffer with EDTA (Sigma Aldrich)) and sonicated in icy water for 3 min with vortexing every 30 s. The cells were frozen once again at −80 °C, defrosted on ice and frozen once again. Following the second freeze–thaw cycle, the cells were centrifuged at 1500× g for 5 min at 4 °C, and then, immediately, the supernatant was transferred to prechilled Eppendorf tubes. The samples were divided into two parts: one was used to measure GSH, and the other one was derivatized by an addition of 4 µL of 2-vinylpyridine (diluted 1:10 with phosphate buffer) (Sigma Aldrich, St. Louis, MO, USA) to determine the GSSG content.
GSH measurements included an addition of 20 µL of the tested sample, blank or GSH standard, 120 µL of the mixture of an equal volume of DTNB solution (2 mg dissolved in 3 mL of phosphate buffer, Sigma Aldrich) and glutathione reductase (10 U in 3 mL of phosphate buffer, Sigma Aldrich, St. Louis, MO, USA) and 30 s of incubation to allow the conversion of GSSG to GSH. The final step included the addition of 60 µL of β-NADPH (2 mg dissolved in 3 mL of phosphate buffer, Sigma Aldrich). The absorbance was read immediately at 415 nm in a microplate reader (Bio-Rad), and the measurements were taken every 30 s for 2 min (6 readings in total). The amount of GSH was calculated on the basis of the calibration curve prepared using GSH (Sigma Aldrich, St. Louis, MO, USA) at concentrations ranging from 0.040 to 2.6 nmol/mL.
The quantification of GSSG in the test samples was performed according to the same procedure as GSH. The samples treated with 2-VP were incubated for one hour at room temperature, and then, 20 µL of the tested sample was analyzed using the same reagents which were applied in the GSH measurements. The amount of GSSG was calculated on the basis of the calibration curve, prepared using GSSG (Sigma Aldrich) at concentrations of 0.040–2.6 nmol/mL. The results are presented as mean ± SD, n = 6–8 and expressed as nmol per […].

OCTs = assay: Inhibition of [14C]choline uptake in MCF-7 cells (competitive inhibition assay); type: cell-based, human; settings: mean ± SD (n = 3)
In short: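 [14C]choline uptake was measured in MDA-MB-231 or MCF-7 monolayers in HBSS with 25 mM HEPES, pH 7.4. After ice-cold washes the cells were lysed in 0.1 M NaOH and radioactivity was counted by liquid scintillation, with at least three replicates per passage.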

MCF-7 cells [2] = assay: Uptake in the presence of OCT and MATE inhibitors, MCF-7 cells; type: in vitro ADME, human; settings: for uptake in the presence of cimetidine, MCF-7 / uptake in the presence of disopyramide, MCF-7 / uptake in the presence of lopinavir, MCF-7 / uptake in the presence of methenamine, MCF-7: compound and inhibitor 400 and 800 µmol/L, 10 min, 37 °C; for interactions with OCT, PMAT and MATE1 transporters, MCF-7: summary from uptake with inhibitors
In short: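 Cells incubated 10 min at 37 °C in HBSS with metformin sulfonamide derivatives at 400 and 800 μmol/L plus disopyramide, cimetidine, lopinavir or methenamine as OCT/MATE/PMAT inhibitors. Intracellular compound concentration then determined by the previously described protocol.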

| SMILES | GSH (MCF-7 cells [1]; MCF-7, 1/2 × IC50, 24 h) | GSH:GSSG Ratio (MCF-7 cells [1]; MCF-7, 1/2 × IC50, 24 h) | GSSG (MCF-7 cells [1]; MCF-7, 1/2 × IC50, 24 h) | GSH (MCF-7 cells [1]; MCF-7, 1/4 × IC50, 24 h) | GSH:GSSG Ratio (MCF-7 cells [1]; MCF-7, 1/4 × IC50, 24 h) | GSSG (MCF-7 cells [1]; MCF-7, 1/4 × IC50, 24 h) | IC50 (OCTs) | uptake in the presence of cimetidine, MCF-7 (MCF-7 cells [2]) | uptake in the presence of disopyramide, MCF-7 (MCF-7 cells [2]) | uptake in the presence of lopinavir, MCF-7 (MCF-7 cells [2]) | uptake in the presence of methenamine, MCF-7 (MCF-7 cells [2]) | interactions with OCT, PMAT and MATE1 transporters, MCF-7 (MCF-7 cells [2]) |
| --- | --- | --- | --- | --- | --- | --- | --- | --- | --- | --- | --- | --- |
| CN(C)C(=N)N=C(N)NS(=O)(=O)c1ccccc1Br [Compound 4] | 148.5 ± 4.8 nmol/1 mln Cells | 24.0 | 6.2 ± 0.7 nmol/1 mln Cells | 165.4 ± 9.6 nmol/1 mln Cells | 19.2 | 8.6 ± 0.7 nmol/1 mln Cells | 1670 ± 8.5 µM | did not change | increased the uptake | increased the uptake | did not change | OCT1, PMAT |
| CN(C)C(=N)N=C(N)NS(=O)(=O)c1ccccc1F [Compound 7] | 169.0 ± 6.0 nmol/1 mln Cells | 15.9 | 10.6 ± 0.4 nmol/1 mln Cells | 166.8 ± 12.8 nmol/1 mln Cells | 21.2 | 7.9 ± 0.9 nmol/1 mln Cells | 6354 ± 12.9 µM | decrease in uptake | – | increase in its uptake | – | OCT3, PMAT |
| CN(C)C(=N)N=C(N)NS(=O)(=O)c1ccccc1Cl [Compound 1] | 167.5 ± 5.1 nmol/1 mln Cells | 22.6 | 7.4 ± 1.8 nmol/1 mln Cells | 183.1 ± 8.9 nmol/1 mln Cells | 20.1 | 9.1 ± 3.9 nmol/1 mln Cells | 1050 ± 14.2 µM | significantly decreased | Lower uptake, however, not statistically significant | significantly higher uptake | significantly decreased | OCT1, OCT3, PMAT, MATE1 |
